Experimental data taken from US6180669A, “Method for treatment of dermatological disorders” (priority 1999, dated 2001).
“Also recorded” adds a separate entry of the source. Where two headings read alike, the source gives them in different places.

Legend:
[1] = tested on: human keratinocytes; assay: Cell proliferation assay; format: cell-based; settings: for IC50: Homo sapiens; for potency in inhibiting cell proliferation (in words): in vitro, keratinocytes
Description: Modulation of keratinocyte proliferation.
Cell proliferation assay.
50,000 human keratinocytes from secondary culture were seeded into 24 well plates, in 1 ml DMEM-F12 medium (Green H. (1978) Cell 15:801-805) with growth factors and 10% Fetal Calf Serum. The cells were incubated at 37° C. in 5% CO2 until 30-40% confluency was reached and then the various test materials, dissolved in ethanol, were added in volumes of 0.1-20 μl, to final volume of 0.5 ml. The same volumes of ethanol were added to control cultures, for comparative values of ethanol cytotoxicity. No apparent cytotoxicity was found up to 40 μl ml ethanol. The medium was replaced with fresh medium prior to addition of the test materials. The cultures were further incubated for 3 days at 37° C. and 5% CO2 and then washed with phosphate buffered saline (PBS). Cell numbers were determined using two methods: 1) trypsinization, followed by cell counting; and 2) fixation of the culture with p-formaldehyde 2% in PBS and methylene blue staining, followed by extraction of color and optical density measurement at 650 nm. Both methods were found in good correlation, so that 1 OD unit corresponded to 1,000,000 cells. IC50, i.e., the concentration that caused 50% inhibition of cell proliferation for each of the test materials is presented in Table 1.

[2] = in vitro; settings: human, keratinocytes
Description: The direct effect of the compounds of the invention on the proliferation of human keratinocytes was assessed in vitro using a keratinocyte cell line.
Modulation of keratinocyte proliferation. The effect of di(ethyl salycilate)azelate and di-retinyl azelate on cell proliferation and cell viability was tested in vitro using human keratinocyte culture system.
Keratinocyte cells, as above, were allowed to proliferate in medium, without the test materials, up to 100% confluency, with one exchange of medium during growth. Confluent cultures were incubated with increasing concentrations of the test materials in ethanol for three days at 37° C. and 5% CO2. At the end of the incubation period the cultures were washed with PBS and measured for remaining attached cells using the above described methods.

[3] = tested on: acne; settings: 20% preparation, twice daily; Fitton and Goa; cited from earlier work
[4] = tested on: sebaceous glands; settings: topical, literature, cited from earlier work
[5] = tested on: keratinocytes; settings: Passi et al.; cited from earlier work
[6] = tested on: reduction of testosterone to dihydrotestosterone; settings: literature; cited from earlier work
[7] = tested on: comedones, rabbit ear acne model; assay: Efficacy in the rabbit ear acne model (comedolytic effect); format: in vivo
Description: See, Lee, et al. Kor. J. Dermatol. 28(5):543-549 (1990).
Efficacy of di(ethyl salicylate)azelate (10%) in the rabbit ear acne model. Three mature male albino rabbits were treated as follows. The external ear canals on both ears were treated once daily for five weekdays for three weeks with 1% crude coal tar in Hydrophilic Ointment USP. Then one ear was treated with antiacne lotion of Example 4 once daily for five weekdays for three weeks while the opposite ear served as an untreated control. Excision biopsies were taken from both sides at the end of three weeks of treatment. […] These were judged to be moderate examples of comedones with distortion of the follicular infundibulum by dense horn.

[8] = tested on: skin of a human subject; assay: Human skin irritation test; format: in vivo; settings: 48 h application, 0.1 ml; observed upon removal and 1, 24, 48 h later; ester 20%; mixture 7.5% azelaic acid + 11% salicylic acid
Description: Human skin irritation test. The following lotions (0.1 ml) were applied to the skin of a human subject for 48 hours, using standard skin irritation test chambers (0.64 sq. cm.):
(1) 20% di(ethyl salicylate)azelate (400 mmole/ml), dissolved in PEG-400/ethanol 1:1;
(2) mixture of 7.5% azelaic acid (400 mmole/ml) and 11% salicylic acid (800 mmole/ml), dissolved in PEG-400/ethanol 1:1; and
(3) PEG-400/ethanol 1:1 (placebo).

[9] = tested on: skin of rabbits; assay: Acute dermal toxicity/irritation test (modified Draise); format: in vivo, rabbit; settings: 10% and 20%, 0.5 ml, 24 h application, observed 1, 24 and 72 h after removal
Description: These findings emphasize a distinct advantage of di(ethyl salicylate)azelate over its parent components.
Acute dermal toxicity/irritation test. The purpose of this study was to evaluate the acute potential dermal irritation effect on skin following the topical application of di(ethyl salicylate) azelate, in rabbits. This test is a modified version of the original Draise method, as described in OECD guidelines. 0.5 ml of either di(ethyl salicylate)azelate (10% or 20%, dissolved in PEG-400/ethanol 1:1) or the vehicle alone were applied to the skin of three rabbits for 24 hours. Rabbits were examined for signs of skin irritation 1, 24 and 72 hours after the removal of the test solutions. […] Based on the current protocol it was concluded that di(ethyl salicylate) azelate is a non-irritant agent.

[10] = tested on: skin oiliness of forehead; assay: Sebolytic effect (skin oiliness of forehead, Skin Tester); format: in vivo, human; settings: lotion of Example 5, twice daily, 14 days; prior to treatment 223 units
Description: Following fourteen days of topical treatment, the skin oiliness of the forehead of a human volunteer, tested using a photometric instrument was reduced from 223 units (resembling "oily skin") to 205 units (normal skin value).
Sebolytic effect of di(ethyl salicylate)azelate. […] Skin oiliness was tested using "Skin Tester, Model STC20" (IMS Ltd., Haifa, Israel) prior to treatment and 14 days thereafter. Prior to treatment, the sebum value was 223 units, typical of oily skin. The sebum value after two weeks of treatment was 205 units, corresponding to normal skin.

[11] = tested on: culicoides hypersensitivity; assay: Effect on culicoides hypersensitivity in horses; format: in vivo, horse; settings: 5% alcoholic solution, topically twice daily for two weeks
Description: Prior to treatment, the horses had typical occurrence of the disease, including localized dermatitis affecting the mane and poll and the root of the tail. FIG. 1 is a photograph of the mane area of a horse afflicted by culicoides hypersensitivity. […] The skin at the affected areas looked hairless, ridged and scaly. The shoulder area and hind quarters were also affected. The horses were treated topically with a 5% alcoholic solution of di(ethyl salicylate) azelate, twice daily for two weeks.
The effect of di(ethyl salicylate) azelate on culicoides hypersensitivity was tested in two horses with colicoides hypersensitivity. Prior to treatment, both horses had typical occurrence of the disease, including localized dermatitis affecting the mane and poll and the root of the tail. The shoulder area and hind quarters were also affected. The skin at the affected areas looked hairless, ridged and scaly. The horses were treated topically with a 5% alcoholic solution of di(ethyl salicylate)azelate, twice daily for two weeks. […] As clearly seen in the pictures, hair seemed to regrow and the skin looked healthy. This improvement persisted throughout 14 days of treatment and observation.

[12] = tested on: chin acne; furunculosis (eczema); assay: Anti-acne and anti-inflammatory effect in cats (chin acne, furunculosis); format: in vivo, cat; settings: 5% alcoholic solution, twice daily for 14 days
Description: The compounds of the present invention have been shown in animals to alleviate the symptoms of acne. Four cats with persistant chin acne were treated twice daily for 14 days with 5% alcoholic solution of di(ethyl salicylate) azelate. […] The skin lesions disappeared and the bald areas were covered with new hair.
Anti-acne and anti-inflammatory effect of di(ethyl salicylate) azelate. Four cats were admitted to the veterinary clinic with skin lesions identified as chin acne. One additional cat had localized furunculosis (eczema) on the chin. The area of the skin lesions was 1-4 cm^2 at baseline. All animals were previously treated with either benzoyl peroxide or topical steroids with no response. Cats were treated twice daily for 14 days with a 5% alcoholic solution of di(ethyl salicylate) azelate.

[13] = Keratinocyte, 72 h, 3 days incubation, 50% inhibition of cell proliferation, Table 1, read-out: IC50 (inhibitory concentration)
[14] = keratinocyte cell line, read-out: inhibitory concentration, cell proliferation
[15] = cytotoxic concentrations higher than inhibitory concentrations
[16] = listed as di(ethyl salicylate) azelate

| Structure (SMILES) | IC50 [1, 13] [µM] | IC50 [1, 14] [µM] | CC50 at 72 h [2] [µM] | selectivity ratio ([2]; Safety factor (CD50/ID50)) | potency in inhibiting cell proliferation (in words) [1] | CC50 [2] [µM] | selectivity ratio [2, 15] | selectivity ratio ([2]; therapeutic safety margin) | also measured |
| --- | --- | --- | --- | --- | --- | --- | --- | --- | --- |
| O=C(O)CCCCCCCC(=O)O [Azelaic acid, reference compound] | 1500 | 1000 | 4000 | 2.6 |  |  |  |  | selectivity ratio ([2]; cytotoxic concentration, times higher than inhibitory concentration): 2.6; time of topical application until effective in acne [3]: 3-6 months; skin oiliness / sebum composition, sebum excretion rate, size of sebaceous glands [4]: can not alter skin oiliness; skin oiliness / sebum composition, sebum excretion rate, size of sebaceous glands ([4]; listed as AZA): failed to induce specific changes in sebum composition, sebum excretion rate and the size of sebaceous glands; effect on keratinocytes [5]: antiproliferative effects on keratinocytes; inhibition of testosterone reduction to dihydrotestosterone [6]: competitive inhibitor of the reduction of testosterone to dihydrotestosterone |
| CC1=C(/C=C/C(C)=C/C=C/C(C)=C/COC(=O)CCCCCCCC(=O)OC/C=C(C)/C=C/C=C(C)/C=C/C2=C(C)CCCC2(C)C)C(C)(C)CCC1 [Di-retinyl azelate, di-retinyl azelate] | 15 | 15 | 100 | 6.6 | significantly more potent than azelaic acid and salicylic acid | 100 | 6.6 to 10 | 6.6 to 10 |  |
| O=C(O)c1ccccc1O [Salicylic acid, o-hydroxybenzoic acid, reference compound] |  |  | 6000 |  |  |  |  |  | IC50 ([1]; Keratinocyte, 72 h, read-out: IC50 (inhibitory concentration)): 1600 µM; selectivity ratio [2]: 3.8 |
| CCOC(=O)c1ccccc1OC(=O)CCCCCCCC(=O)Oc1ccccc1C(=O)OCC [di(ethyl salicylate)azelate, Nonanedioic acid, di-[(2'-ethoxycarbonyl)phenyl]ester] | 300 | 300 | 3000 | 10 | significantly more potent than azelaic acid and salicylic acid | 3 | 6.6 to 10 | 6.6 to 10 | reduction of comedones ([7]; 10% topical, once daily five weekdays for three weeks): effective in the reduction of comedones; also recorded: All three treated ears showed a marked reduction of the comedones; comedolytic effect compared with 0.025% Retin A Cream ([7]; 10% topical, rabbit ear): comparable to the effect of 0.025% Retin A Cream; comedolytic effect compared with 20% azelaic acid preparation of the prior art ([7]; 10% topical, rabbit ear, comparison with Lee et al.): superior to a 20% (1,060 mmole/ml) azelaic acid preparation; inflammatory response in treated area ([7]; topical, rabbit ear, Retin A at 0.025%): did not induce any inflammatory response in the treated area; also recorded: no inflammatory reaction; skin reaction / irritation [8]: did not irritate the skin; also recorded: no sign of any skin reaction; signs of skin irritation [9]: no signs of irritation; signs of skin irritation [9, 16]: no signs of skin irritation were observed; sebum value (skin oiliness) after treatment [10]: 205 units; improvement of lesions and hair growth [11]: After one week of treatment, there was a marked improvement in the appearance of all treated lesions; also recorded: hair seemed to regrow and the skin looked healthy. This improvement persisted throughout 14 days of treatment and observation; improvement of lesions and hair growth [11, 16]: After one week of treatment, there was a marked improvement in the appearance of all treated lesions. Hair regrew and the skin looked healthy; skin irritation in treated cats [12]: No skin irritation was noticed in any of the treated cats; response of chin acne ([12]; four cats): Three of the four cats responded to treatment within 10 days; also recorded: Three of the four cats responded to treatment within ten days; response of furunculosis (eczema) ([12]; one cat): responded positively; also recorded: successfully treated |
